These results are taken from ChEMBL document CHEMBL1201862, “PubChem BioAssay data set” (2004).

Some test systems named below: MOLT-4; ACHN; NCI-H460; IGROV-1; UO-31; SW-620; CCRF-CEM; SK-OV-3; KM12; M14; 786-0; OVCAR-8; SK-MEL-2; TK-10; Malme-3M; RXF 393; RPMI-8226; SR; HT-29; PC-3.
Test in all cases: NCI-60 cell line screen, 48 h

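Compound exposure: 48 hours, 5 concentrations, 96-well plates. GI50 marks 50% less growth.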 Calls of active or inactive are those of the source. Rule as the data show it: active = GI50 up to about 1.1 µM and inactive = higher.

As to `NC(=O)c1csc(CCCCCCc2nc(C(N)=O)cs2)n1`, the GI50 with MOLT-4 was > 100 µM (inactive); in the assay on ACHN, > 100 µM (inactive); in the assay with NCI-H460, > 100 µM (inactive); in the assay on IGROV-1 it was > 100 µM (inactive); with UO-31, > 100 µM (inactive); in the assay on SW-620, > 40.3 µM (inactive). Moreover, the GI50 is > 43.5 µM (inactive) with CCRF-CEM; > 100 µM (inactive) with SK-OV-3; > 59.4 µM (inactive) in the assay with KM12; > 100 µM (inactive) in the assay on M14; > 45.3 µM (inactive) in the assay with 786-0; > 100 µM (inactive) in the assay on OVCAR-8. Further, the GI50 in the assay on SK-MEL-2 is > 100 µM (inactive); with TK-10 it was > 100 µM (inactive); with Malme-3M it was > 100 µM (inactive); in the assay on RXF 393 it was > 100 µM (inactive); with RPMI-8226 it was > 50.9 µM (inactive); in the assay on SR it was > 100 µM (inactive). Further, the GI50 in the assay on HT-29 is > 40.9 µM (inactive).

Take `CN(NC1OC(CO)C(O)C(O)C1O)c1ccccc1` (centres undefined): the GI50 in the assay on MOLT-4, in the assay with ACHN, in the assay on NCI-H460, in the assay with IGROV-1, in the assay on SW-620 and in the assay on CCRF-CEM was > 100 µM (inactive) throughout. Also, the GI50 in the assay with KM12, in the assay on M14, in the assay on 786-0, in the assay with OVCAR-8, with TK-10 and in the assay on Malme-3M was > 100 µM (inactive) throughout. In addition, the GI50 with RXF 393, in the assay on RPMI-8226, with SR and with HT-29 was > 100 µM (inactive) in each case.

On to `CNC(C)Cc1ccc(O)cc1` (centres undefined), for which the GI50 in the assay with MOLT-4, in the assay with ACHN, in the assay with NCI-H460, in the assay on IGROV-1, with UO-31 and with SW-620 was > 100 µM (inactive) throughout. Also, the GI50 in the assay on CCRF-CEM, in the assay on SK-OV-3, with KM12, in the assay with M14, in the assay with 786-0 and with OVCAR-8 was > 100 µM (inactive) throughout. In addition, the GI50 in the assay with SK-MEL-2, in the assay on TK-10, in the assay on Malme-3M, with RXF 393, in the assay with RPMI-8226 and in the assay with SR was > 100 µM (inactive) in each case. Moreover, the GI50 in the assay with HT-29 was > 100 µM (inactive).

Consider `COc1ccc(C2=CC3CCC2C3)cc1` (centres undefined), for which the GI50 with MOLT-4, with ACHN, in the assay on NCI-H460, with IGROV-1, with UO-31 and in the assay on SW-620 was > 100 µM (inactive) each time. Besides, the GI50 in the assay on CCRF-CEM was > 100 µM (inactive); in the assay on SK-OV-3 it was 12.2 µM (inactive); in the assay on KM12 it was > 100 µM (inactive); in the assay with M14, > 100 µM (inactive); in the assay on 786-0, > 100 µM (inactive); in the assay with OVCAR-8, > 100 µM (inactive). Also, the GI50 in the assay on SK-MEL-2, with TK-10, in the assay on Malme-3M, in the assay on RXF 393, with RPMI-8226 and in the assay on SR was > 100 µM (inactive) each time. For the same compound, in the assay on HT-29, the GI50 was > 100 µM (inactive).

`O=C1c2ccccc2C(=O)N1CCn1nc(-c2ccccc2)cc(-c2ccccc2)c1=O`: the GI50 in the assay with MOLT-4 was 26.4 µM (inactive); in the assay with ACHN, 34.7 µM (inactive); in the assay on NCI-H460, 26.2 µM (inactive); with IGROV-1, 74.8 µM (inactive); with UO-31, 18.9 µM (inactive); in the assay on SW-620, > 100 µM (inactive). Further, the GI50 in the assay on CCRF-CEM was 23.2 µM (inactive); in the assay on SK-OV-3, > 100 µM (inactive); in the assay on KM12, > 100 µM (inactive); in the assay on M14, > 100 µM (inactive); with 786-0, > 100 µM (inactive); in the assay with OVCAR-8, 33.3 µM (inactive). For the same compound, the GI50 with SK-MEL-2 was 82 µM (inactive); with Malme-3M, > 100 µM (inactive); in the assay with RXF 393, > 100 µM (inactive); with RPMI-8226, 5.41 µM (inactive); in the assay with SR, 5.4 µM (inactive); with HT-29, 52.6 µM (inactive).

Regarding `COc1cc([C@@H]2c3cc4c(cc3[C@@H](NC(=O)c3cccc(N)c3)C3COC(=O)[C@@H]32)OCO4)cc(OC)c1O` (some centres undefined), the GI50 is < 0.0147 µM (active) in the assay with MOLT-4; 0.166 µM (active) in the assay with ACHN; < 0.01 µM (active) in the assay with NCI-H460; 6.05 µM (inactive) in the assay on IGROV-1; 9.06 µM (inactive) with UO-31; 0.391 µM (active) with SW-620. The GI50 in the assay with CCRF-CEM was 0.0802 µM (active); in the assay with SK-OV-3 it was 1.97 µM (inactive); in the assay with KM12, 2.42 µM (inactive); in the assay on M14, 1.26 µM (inactive); in the assay on 786-0 it was 0.421 µM (active); in the assay with OVCAR-8, 1.97 µM (inactive). Further, the GI50 in the assay on SK-MEL-2 is 3.3 µM (inactive); in the assay with TK-10, 3.31 µM (inactive); in the assay with Malme-3M, 0.942 µM (active); in the assay on RXF 393, 3.42 µM (inactive); with RPMI-8226 it was 0.507 µM (active); in the assay on SR, < 0.01 µM (active). For the same compound, in the assay on HT-29, the GI50 is 2.83 µM (inactive).

For `COc1ccc(C)cc1C1CCC(=O)O1` (centres undefined), the GI50 in the assay with MOLT-4, in the assay on ACHN, in the assay with NCI-H460, with IGROV-1, in the assay on UO-31 and in the assay on SW-620 was > 100 µM (inactive) throughout. The GI50 in the assay with CCRF-CEM, in the assay on SK-OV-3, in the assay on KM12, with M14, with 786-0 and in the assay on OVCAR-8 was > 100 µM (inactive) in each case. Also, the GI50 with SK-MEL-2, with TK-10, in the assay with Malme-3M, in the assay on RXF 393, in the assay on RPMI-8226 and in the assay with SR was > 100 µM (inactive) each time. For the same compound, the GI50 in the assay on HT-29 was > 100 µM (inactive).

As to `Cc1nc(-c2nc([N+](=O)[O-])c([N+](=O)[O-])[nH]2)cs1`, the GI50 with MOLT-4, in the assay with ACHN, in the assay with NCI-H460, with IGROV-1, in the assay with UO-31 and in the assay with SW-620 was > 100 µM (inactive) throughout. The GI50 in the assay on CCRF-CEM, in the assay with SK-OV-3, with KM12, in the assay with M14, in the assay on SK-MEL-2 and with TK-10 was > 100 µM (inactive) throughout. Moreover, the GI50 with Malme-3M, in the assay on RXF 393, in the assay on RPMI-8226, with SR and with HT-29 was > 100 µM (inactive) in each case.

For `C=C1C(=O)O[C@H]2C(=O)[C@H](C)CCC[C@@](C)(O)/C=C\C[C@@]3(C)O[C@@H]3C[C@@H]12`, the GI50 with MOLT-4 is < 0.01 µM (active); in the assay on ACHN, 8.02 µM (inactive); with NCI-H460 it was 26.5 µM (inactive); in the assay with IGROV-1, 20.3 µM (inactive); with UO-31 it was 13.5 µM (inactive); in the assay with SW-620 it was 8 µM (inactive). Further, the GI50 in the assay on CCRF-CEM was 2.67 µM (inactive); with SK-OV-3 it was > 100 µM (inactive); in the assay with KM12, 22.2 µM (inactive); with M14, 11.3 µM (inactive); in the assay on 786-0, 12.3 µM (inactive); in the assay on OVCAR-8, 19.9 µM (inactive). Also, the GI50 is 19.5 µM (inactive) with SK-MEL-2; 4.19 µM (inactive) in the assay on TK-10; 17 µM (inactive) in the assay on PC-3; 17 µM (inactive) with RPMI-8226; 14.8 µM (inactive) with HT-29.

For `COc1cccc(-c2nccc3c(OCc4ccccc4)c(OC)c(OC)cc23)c1`, the GI50 in the assay with MOLT-4 was 5.53 µM (inactive); with ACHN, 54.6 µM (inactive); in the assay with IGROV-1 it was > 100 µM (inactive); in the assay with UO-31 it was 7.29 µM (inactive); in the assay with SW-620, > 100 µM (inactive); with CCRF-CEM it was 5.68 µM (inactive). The GI50 with SK-OV-3 was > 100 µM (inactive); in the assay with KM12 it was > 100 µM (inactive); with M14 it was > 100 µM (inactive); in the assay with 786-0 it was > 10 µM (inactive); in the assay on OVCAR-8 it was > 100 µM (inactive); in the assay on SK-MEL-2, 30.1 µM (inactive). Further, the GI50 in the assay on TK-10 is > 100 µM (inactive); with Malme-3M it was 2.94 µM (inactive); in the assay with RXF 393, 4.51 µM (inactive); in the assay with RPMI-8226, 7.08 µM (inactive); with SR, 6.68 µM (inactive); in the assay with HT-29 it was 12 µM (inactive).

With `c1ccc(N2N=C(c3ccco3)CC2c2ccco2)cc1` (centres undefined), the GI50 is 20.5 µM (inactive) in the assay on MOLT-4; 42.6 µM (inactive) with ACHN; 66.1 µM (inactive) with NCI-H460; > 100 µM (inactive) with IGROV-1; 28.6 µM (inactive) in the assay with UO-31; > 100 µM (inactive) with SW-620. Moreover, the GI50 is 42.3 µM (inactive) in the assay with CCRF-CEM; 47.4 µM (inactive) in the assay on KM12; > 100 µM (inactive) in the assay with M14; > 100 µM (inactive) in the assay on 786-0; > 100 µM (inactive) in the assay with OVCAR-8; > 100 µM (inactive) in the assay on SK-MEL-2. The GI50 with TK-10 is > 100 µM (inactive); with Malme-3M, > 100 µM (inactive); in the assay with RXF 393, 52.4 µM (inactive); with RPMI-8226, 35.2 µM (inactive); in the assay with SR, 30.3 µM (inactive); with HT-29, 75.9 µM (inactive).
